# Assay results published in BindingDB's records for doi:10.7270/Q2MC8XP5 (Burnham Center For Chemical Genomics, 2013).
# pIC50: −log10 of the molar value.
# Biological target: Protein artemis (Homo sapiens, UniProt Q96SD1)
# Assay: IC50 of Artemis nuclease activity blockers – biochemical, fluorescence intensity, dose response (AID 720701)
# Protein artemis, sequence (Q96SD1 whole entry): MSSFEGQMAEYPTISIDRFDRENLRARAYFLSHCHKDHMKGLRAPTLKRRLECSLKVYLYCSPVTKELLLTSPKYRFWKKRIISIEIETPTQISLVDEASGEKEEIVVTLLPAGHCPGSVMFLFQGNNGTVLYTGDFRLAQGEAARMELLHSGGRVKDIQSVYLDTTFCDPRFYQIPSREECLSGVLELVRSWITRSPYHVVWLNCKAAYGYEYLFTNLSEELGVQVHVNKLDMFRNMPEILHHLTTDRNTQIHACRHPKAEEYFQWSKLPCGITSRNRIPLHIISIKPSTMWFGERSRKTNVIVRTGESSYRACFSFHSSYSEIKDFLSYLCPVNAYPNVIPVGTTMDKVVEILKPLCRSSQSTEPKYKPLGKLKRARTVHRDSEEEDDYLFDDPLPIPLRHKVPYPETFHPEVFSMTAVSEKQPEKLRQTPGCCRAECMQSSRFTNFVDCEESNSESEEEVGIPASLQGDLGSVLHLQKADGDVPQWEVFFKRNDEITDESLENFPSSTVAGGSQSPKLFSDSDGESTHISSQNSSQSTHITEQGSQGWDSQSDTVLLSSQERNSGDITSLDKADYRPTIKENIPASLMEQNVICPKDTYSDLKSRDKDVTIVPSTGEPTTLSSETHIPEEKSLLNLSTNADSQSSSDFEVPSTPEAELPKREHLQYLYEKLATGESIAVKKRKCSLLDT
row,SMILES,pIC50
1,N#CC(C(=O)NCc1ccccc1)c1nc2ccccc2nc1N1CCCC1 (stereo unspecified) [2-cyano-N-(phenylmethyl)-2-(3-pyrrolidin-1-ylquinoxalin-2-yl)ethanamide],5.30
2,NS(=O)(=O)c1ccc2c(c1)C1C=CCC1C(C1CC=CCC1)N2 (stereo unspecified) [MLS000530517],5.02
3,CN1c2cccc3cccc(c23)C1N=O (stereo unspecified) [1-Methyl-1H-benzo[cd]indol-2-one oxime],< 4.70
4,Cc1cccc(CN2C(=O)N/C(=C/c3ccc(C)s3)C2=O)c1,4.79
5,CCOc1ccc(-n2c(O)c(C=Nc3ccc(N4CCOCC4)cc3)c(=O)[nH]c2=O)cc1 [SMR000109118],< 4.70
6,CCN(CC)c1ccc(CN=Nc2nc3ccccc3[nH]2)c(O)c1 [MLS000541069],4.81
7,CCCCc1ccc(/C=C2\C(=O)ON=C2c2ccccc2)s1 [4-(5-Butyl-thiophen-2-ylmethylene)-3-phenyl-4H-isoxazol-5-one],4.79
8,"COc1ccc(O)c(CN=Nc2nc(Nc3ccccc3)nc(-n3nc(C)cc3C)n2)c1 [(6E)-6-[[2-[4-(3,5-dimethylpyrazol-1-yl)-6-phenylazanyl-1,3,5-triazin-2-yl]hydrazinyl]methylidene]-4-methoxy-cyclohexa-2,4-dien-1-one]",5.65
9,O=C1C=Cc2ccccc2/C1=C/NC12CN3CCN(CN(C3)C1)C2 [MLS000071484],5.44
10,CCCCCCCCCC(N=O)c1ccccn1 (stereo unspecified) [1-Pyridin-2-yl-decan-1-one oxime],4.96
11,CC(N=O)c1ccccc1C(=O)O (stereo unspecified) [SMR000038583],5.44
12,COc1ccc(Nc2nc(N=NCc3ccccc3)nc(NCc3ccco3)n2)cc1,5.58
13,"N#CC1C(=N)Oc2[nH]nc(-c3cccs3)c2C1c1ccoc1 (stereo unspecified) [6-amino-4-(furan-3-yl)-3-thiophen-2-yl-2,4-dihydropyrano[2,3-c]pyrazole-5-carbonitrile]",< 4.70
14,"C=CCN1C(=O)S/C(=C\c2ccc(N3CCOCC3)cc2C)C1=O [(5Z)-5-[[2-methyl-4-(4-morpholinyl)phenyl]methylidene]-3-prop-2-enylthiazolidine-2,4-dione]",5.82
15,O=c1c2ccccc2nc(N=NCc2c(O)ccc3ccccc23)n1O [SMR000145705],5.33
16,CCCCOc1ccc(/C=C2/Sc3ccccc3C2=O)cc1 [2-(4-Butoxy-benzylidene)-benzo[b]thiophen-3-one],< 4.70
